Data taken from the supplement of paper PMC11061612.

Legend:
[1] = test system: NCI-H1581 (Non-Small Cell Lung Carcinoma); assay: Bliss excess, mean over the matrix (fraction); higher = more synergy
Summary of the method: (§1)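 Bliss excess equals the observed combination effect minus the expected value EA + EB − EA·EB, where EA and EB are the effects of each agent alone. Combination Emax is the second-highest inhibition within the matrix. Inhibition was scaled from CellTiter-Glo 2.0 luminescence, with 0 set by vehicle wells and 1 by blank wells, after 72 hours of two-drug dosing of cells plated in 1536-well plates.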

[2] = test system: NCI-H2066 (Squamous Cell Lung Carcinoma); assay: as above
Summary of the method: as §1

[3] = test system: ONS-76 (Other Solid Carcinomas); assay: as above
Summary of the method: as §1

[4] = test system: IGR-37 (Melanoma); assay: as above
Summary of the method: as §1

[5] = test system: U-2-OS (Osteosarcoma); assay: as above
Summary of the method: as §1

[6] = test system: BICR22 (Oral Cavity Carcinoma); assay: as above
Summary of the method: as §1

[7] = test system: VCaP (Prostate Carcinoma); assay: as above
Summary of the method: as §1

[8] = test system: CCK-81 (Colorectal Carcinoma); assay: as above
Summary of the method: as §1

[9] = test system: FU97 (Gastric Carcinoma); assay: as above
Summary of the method: as §1

[10] = test system: KARPAS-422 (B-Cell Non-Hodgkin's Lymphoma); assay: as above
Summary of the method: as §1

[11] = test system: PANC-10-05 (Pancreatic Carcinoma); assay: as above
Summary of the method: as §1

[12] = test system: NY (Osteosarcoma); assay: as above
Summary of the method: as §1

[13] = test system: NCI-H1666 (Lung Adenocarcinoma); assay: as above
Summary of the method: as §1

[14] = test system: NCI-H64 (Small Cell Lung Carcinoma); assay: as above
Summary of the method: as §1

[15] = test system: COLO-320-HSR (Colorectal Carcinoma); assay: as above
Summary of the method: as §1

[16] = test system: CAPAN-2 (Pancreatic Carcinoma); assay: as above
Summary of the method: as §1

[17] = test system: TT (Thyroid Gland Carcinoma); assay: as above
Summary of the method: as §1

[18] = test system: ECC10 (Gastric Carcinoma); assay: as above
Summary of the method: as §1

[19] = test system: NCI-H1581 (Non-Small Cell Lung Carcinoma); assay: combination Emax (second highest fraction inhibited in the dose matrix, 72 h); higher = more inhibition; extreme values may be limits of the assay
Summary of the method: as §1

[20] = test system: NCI-H2066 (Squamous Cell Lung Carcinoma); assay: as above
Summary of the method: as §1

[21] = test system: ONS-76 (Other Solid Carcinomas); assay: as above
Summary of the method: as §1

[22] = test system: IGR-37 (Melanoma); assay: as above
Summary of the method: as §1

[23] = test system: U-2-OS (Osteosarcoma); assay: as above
Summary of the method: as §1

[24] = test system: BICR22 (Oral Cavity Carcinoma); assay: as above
Summary of the method: as §1

[25] = test system: VCaP (Prostate Carcinoma); assay: as above
Summary of the method: as §1

[26] = test system: CCK-81 (Colorectal Carcinoma); assay: as above
Summary of the method: as §1

[27] = test system: FU97 (Gastric Carcinoma); assay: as above
Summary of the method: as §1

[28] = test system: KARPAS-422 (B-Cell Non-Hodgkin's Lymphoma); assay: as above
Summary of the method: as §1

[29] = test system: PANC-10-05 (Pancreatic Carcinoma); assay: as above
Summary of the method: as §1

[30] = test system: NY (Osteosarcoma); assay: as above
Summary of the method: as §1

[31] = test system: NCI-H1666 (Lung Adenocarcinoma); assay: as above
Summary of the method: as §1

[32] = test system: NCI-H64 (Small Cell Lung Carcinoma); assay: as above
Summary of the method: as §1

[33] = test system: COLO-320-HSR (Colorectal Carcinoma); assay: as above
Summary of the method: as §1

[34] = test system: CAPAN-2 (Pancreatic Carcinoma); assay: as above
Summary of the method: as §1

[35] = test system: TT (Thyroid Gland Carcinoma); assay: as above
Summary of the method: as §1

[36] = test system: ECC10 (Gastric Carcinoma); assay: as above
Summary of the method: as §1

Row | Structure (SMILES) | Bliss excess [1] | Bliss excess [2] | Bliss excess [3] | Bliss excess [4] | Bliss excess [5] | Bliss excess [6] | Bliss excess [7] | Bliss excess [8] | Bliss excess [9] | Bliss excess [10] | Bliss excess [11] | Bliss excess [12] | Bliss excess [13] | Bliss excess [14] | Bliss excess [15] | Bliss excess [16] | Bliss excess [17] | Bliss excess [18] | combination Emax [19] | combination Emax [20] | combination Emax [21] | combination Emax [22] | combination Emax [23] | combination Emax [24] | combination Emax [25] | combination Emax [26] | combination Emax [27] | combination Emax [28] | combination Emax [29] | combination Emax [30] | combination Emax [31] | combination Emax [32] | combination Emax [33] | combination Emax [34] | combination Emax [35] | combination Emax [36]
1 | N#Cc1cnc(Nc2cc(NC[C@H]3CNCCO3)c(C(F)(F)F)cn2)cn1 [SRA737] + O=c1[nH]cc(F)c(=O)[nH]1 [5-Fluorouracil] (first compound max 10 µM, 7x7, partner max 20 µM) | 0.0093 | -0.0379 | -0.0482 | -0.057 | -0.0167 | 0.0671 | -0.046 | -0.0681 | -0.0344 | -0.0095 | -0.0727 | -0.0522 | -0.0428 | -0.0104 | 0.0047 | -0.0132 | 0.0035 | 0.0718 | 0.411 | 0.197 | 0.835 | 0.728 | 0.625 | 0.84 | 0.378 | 0.855 | 0.167 | 0.521 | 0.311 | 0.538 | 0.381 | 0.736 | 0.302 | 0.147 | 0.373 | 0.72
2 | C[C@@H](Oc1cc(-c2cnn(C3CCNCC3)c2)cnc1N)c1c(Cl)ccc(F)c1Cl [Crizotinib] + Cn1cnc2c(F)c(Nc3ccc(Br)cc3Cl)c(C(=O)NOCCO)cc21 [Selumetinib] (first compound max 10 µM, 7x7, partner max 10 µM) | 0.0228 | -0.0245 | -0.0482 | 0.0066 | 0.0015 | -0.0493 | -0.0622 | -0.0256 | -0.0414 | -0.063 | 0.006 | -0.0158 | -0.0892 | -0.012 | -0.0696 | 0.0244 | 0.0207 | -0.0116 | 0.519 | 0.513 | 0.65 | 0.922 | 0.831 | 0.281 | 0.652 | 0.794 | 0.319 | 0.723 | 0.643 | 0.279 | 0.503 | 0.56 | 0.614 | 0.639 | 0.479 | 0.858
3 | CS(=O)(=O)CCNCc1ccc(-c2ccc3ncnc(Nc4ccc(OCc5cccc(F)c5)c(Cl)c4)c3c2)o1 [Lapatinib] + Cn1cnc2c(F)c(Nc3ccc(Br)cc3Cl)c(C(=O)NOCCO)cc21 [Selumetinib] (first compound max 10 µM, 7x7, partner max 10 µM) | 0.031 | -0.0156 | -0.0123 | -0.0934 | -0.0563 | 0.128 | -0.0677 | -0.0522 | -0.0116 | 0.0289 | 0.0247 | 0.0033 | 0.064 | -0.0224 | 0.0181 | 0.0147 | -0.0416 | -0.0082 | 0.395 | 0.338 | 0.748 | 0.856 | 0.647 | 0.924 | 0.182 | 0.944 | 0.906 | 0.562 | 0.556 | 0.329 | 0.839 | 0.14 | 0.264 | 0.424 | 0.305 | 0.951
4 | O=C(c1cc(Cc2n[nH]c(=O)c3ccccc23)ccc1F)N1CCN(C(=O)C2CC2)CC1 [Olaparib] + Cc1c2c(nn1C)CSCc1cc(n(C)n1)CSc1cc(c3ccccc3c1)OCCCc1c(C(=O)O)n(C)c3c-2c(Cl)ccc13 [AZD5991] (first compound max 10 µM, 7x7, partner max 1 µM) | 0.0183 | -0.0539 | -0.038 | -0.0419 | -0.0394 | -0.0317 | -0.0247 | -0.0311 | -0.0169 | -0.0071 | -0.0739 | -0.0239 | -0.0669 | 0.0017 | -0.0304 | -0.0426 | -0.0273 | 0.0111 | 0.972 | 0.2 | 0.17 | 0.151 | 0.0686 | 0.108 | 0.958 | 0.785 | 0.207 | 0.967 | 0.159 | 0.426 | 0.111 | 0.148 | 0.836 | 0.044 | 0.168 | 0.738
5 | CN(CCO)CC[C@H](CSc1ccccc1)Nc1ccc(S(=O)(=O)NC(=O)c2ccc(N3CCC([C@@H](O)c4ccccc4-c4ccc(Cl)cc4)CC3)cc2)cc1S(=O)(=O)C(F)(F)F [AZD4320] + Nc1ccn([C@@H]2O[C@H](CO)[C@@H](O)C2(F)F)c(=O)n1 [Gemcitabine] (first compound max 1 µM, 7x7, partner max 0.3 µM) | 0.0326 | -0.0764 | 0.003 | 0.0268 | 0.0048 | -0.0171 | -0.0098 | -0.0153 | 0.0132 | 0.067 | 0.0148 | 0.0595 | -0.0121 | 0.0845 | -0.078 | -0.0009 | 0.0159 | 0.0147 | 0.482 | 0.338 | 0.724 | 0.872 | 0.501 | 0.95 | 0.547 | 0.589 | 0.349 | 0.97 | 0.582 | 0.966 | 0.501 | 0.998 | 0.569 | 0.586 | 0.615 | 1
6 | N#Cc1cnc(Nc2cc(NC[C@H]3CNCCO3)c(C(F)(F)F)cn2)cn1 [SRA737] + CCc1c2c(nc3ccc(O)cc13)-c1cc3c(c(=O)n1C2)COC(=O)[C@]3(O)CC [SN-38] (first compound max 10 µM, 7x7, partner max 0.3 µM) | 0.135 | -0.0192 | -0.0554 | -0.111 | -0.0473 | -0.0185 | -0.0295 | -0.067 | -0.0739 | 0.0019 | -0.006 | -0.0729 | -0.0679 | -0.0347 | 0.112 | -0.0041 | -0.0712 | -0.0016 | 0.86 | 0.345 | 0.876 | 0.818 | 0.61 | 0.893 | 0.59 | 0.78 | 0.408 | 0.91 | 0.86 | 0.928 | – | 0.818 | 0.657 | 0.25 | 0.883 | 0.973
7 | C[C@@H]1COCCN1c1cc(C2([S@](C)(=N)=O)CC2)nc(-c2ccnc3[nH]ccc23)n1 [AZD6738] + Nc1ccn([C@@H]2O[C@H](CO)[C@@H](O)C2(F)F)c(=O)n1 [Gemcitabine] (first compound max 10 µM, 7x7, partner max 0.3 µM) | 0.128 | -0.0525 | -0.0644 | -0.0837 | 0.107 | -0.007 | 0.0509 | 0.0606 | 0.0306 | -0.0523 | 0.0682 | 0.0071 | -0.0247 | 0.0857 | 0.0818 | 0.018 | 0.0446 | – | 0.975 | 0.368 | 0.817 | 0.794 | 0.83 | 0.958 | 0.837 | 0.888 | 0.398 | 0.749 | 0.631 | 0.777 | 0.553 | 0.936 | 0.852 | 0.313 | 0.526 | 0.866
8 | C=CCn1c(=O)c2cnc(Nc3ccc(N4CCN(C)CC4)cc3)nc2n1-c1cccc(C(C)(C)O)n1 [AZD1775] + CCc1c2c(nc3ccc(O)cc13)-c1cc3c(c(=O)n1C2)COC(=O)[C@]3(O)CC [SN-38] (first compound max 1 µM, partner max 0.3 µM) | 0.0811 | -0.0821 | -0.0392 | -0.107 | -0.0179 | – | -0.108 | -0.0839 | -0.0007 | -0.0699 | -0.029 | -0.0575 | -0.0452 | -0.017 | -0.0294 | -0.0501 | -0.0838 | -0.0663 | 0.965 | 0.304 | 0.835 | 0.823 | 0.588 | – | 0.67 | 0.845 | 0.391 | 0.953 | 0.851 | 0.902 | 0.539 | 0.887 | 0.756 | 0.415 | 0.941 | 0.995
